Experimental data published in ChEMBL document CHEMBL1122213, “Synthesis and study of a spin-labeled cyclophosphamide analogue, 3-(1-oxy-2,2,6,6-tetramethyl-4-piperidinyl)cyclophosphamide” (J Med Chem, 1982).
The source made the active and inactive calls. No cut-off for these calls is given here.

What was measured:
[1] = Half life was determined; format: ADME; conditions: rat
Mus musculus [2] = species: Mus musculus; test: Effect tested against L1210 lymphoid leukemia in BDF1 mice an inoculum of l0E5 cells; Inactive; format: functional, organism-based
[3] = Anticancer activity tested against L1210 lymphoid leukemia in BDF1 mice; range 75-300; format: ADME; conditions: mouse
Mus musculus [4] = test: Compound test for increase life span in mice after 100 mg/kg ip administration; format: functional; conditions: route intraperitoneal
[5] = Anticancer activity tested against L1210 lymphoid leukemia in BDF1 mice; range 25-100; format: ADME; conditions: mouse

Row | Structure (SMILES) | half-life [1] [min] | Activity (Mus musculus [2]) | further results
1 | CC1(C)CC(NP(=O)(O)N(CCCl)CCCl)CC(C)(C)N1[O] | 51 | – | –
2 | CC1(C)CC(NP(=O)(O)N(CCCl)CCCl)CC(C)(C)N1O.CC1(C)CC(NP(=O)(O)N(CCCl)CCCl)CC(C)(C)N1[O] [listing 1 of 2 here] | – | inactive | –
3 | CC1(C)CC(N2CCCOP2(=O)N(CCCl)CCCl)CC(C)(C)N1[O] (configuration not stated) | – | inactive | Sublethal dose [3]: > 300 mg/kg; Increased (Mus musculus [4]): 64%
4 | CC1(C)CC(NP(=O)(O)N(CCCl)CCCl)CC(C)(C)N1O.CC1(C)CC(NP(=O)(O)N(CCCl)CCCl)CC(C)(C)N1[O] [listing 2 of 2 here] | – | – | Sublethal dose [5]: > 100 mg/kg
5 | CC1(C)CC(NP(=O)(O)N(CCCl)CCCl)CC(C)(C)N1O | 34 | – | –
